Values of other authors in patent US20090162488A1, “BEVERAGE PRODUCTS AND FLAVOR SYSTEMS HAVING A NON-SWEETENING AMOUNT OF MONATIN” (The Concentrate Manufacturing Company of Ireland, priority 2007, published 2009).
Peptide text beside a SMILES is read from it.

Settings: commonly accepted potency figures; weight basis versus sugar

Q: For `CC1(C)[C@@H](O[C@H]2O[C@H](C(=O)O)[C@@H](O)[C@H](O)[C@H]2O[C@@H]2O[C@H](C(=O)O)[C@@H](O)[C@H](O)[C@H]2O)CC[C@]2(C)[C@H]3C(=O)C=C4[C@@H]5C[C@@](C)(C(=O)O)CC[C@]5(C)CC[C@@]4(C)[C@]3(C)CC[C@@H]12` [Glycyrrhizin], which “potency figures: times as sweet as sugar” value is on record?
A: 30-50 times as sweet as sugar

Q: For `OC[C@H]1O[C@H](O[C@]2(CCl)O[C@H](CCl)[C@@H](O)[C@@H]2O)[C@H](O)[C@@H](O)[C@H]1Cl` [Sucralose], which “potency figures: times as sweet as sugar” value is on record?
A: 600 times as sweet as sugar

Q: Which “potency figures: times as sweet as sugar” value does the source give for `C[C@@H](NC(=O)[C@@H](N)CC(=O)O)C(=O)NC1C(C)(C)SC1(C)C` [Alitame] here?
A: 2,000 times as sweet as sugar

Q: With `COc1ccc(CCC(=O)c2c(O)cc(O[C@@H]3O[C@H](CO)[C@@H](O)[C@H](O)[C@H]3O[C@@H]3O[C@@H](C)[C@H](O)[C@@H](O)[C@H]3O)cc2O)cc1O` [Neohesperidin dihydrochalcone] as the compound, how does the “potency figures: times as sweet as sugar” value read?
A: 300 times as sweet as sugar

Q: With `COC(=O)[C@H](Cc1ccccc1)NC(=O)[C@@H](N)CC(=O)O` [Aspartame] (H-Asp-Phe-OMe) as the compound, how does the “potency figures: times as sweet as sugar” value read?
A: 200 times as sweet as sugar

Q: With `C=C1C[C@@]23CC[C@H]4[C@@](C)(CCC[C@@]4(C)C(=O)O[C@@H]4O[C@H](CO)[C@@H](O)[C@H](O)[C@H]4O)[C@@H]2CC[C@]1(O[C@@H]1O[C@H](CO)[C@@H](O)[C@H](O)[C@H]1O[C@@H]1O[C@H](CO)[C@@H](O)[C@H](O)[C@H]1O)C3` [Stevioside] as the compound, how does the “potency figures: times as sweet as sugar” value read?
A: 100-250 times as sweet as sugar

Q: Which “potency figures: times as sweet as sugar” value does the source give for `C[C@H](CC[C@@H](O[C@@H]1O[C@H](CO[C@@H]2O[C@H](CO)[C@@H](O)[C@H](O)[C@H]2O)[C@@H](O)[C@H](O)[C@H]1O[C@@H]1O[C@H](CO)[C@@H](O)[C@H](O)[C@H]1O)C(C)(C)O)[C@H]1CC[C@@]2(C)[C@@H]3CC=C4[C@@H](CC[C@H](O[C@@H]5O[C@H](CO[C@@H]6O[C@H](CO)[C@@H](O)[C@H](O)[C@H]6O)[C@@H](O)[C@H](O)[C@H]5O)C4(C)C)[C@]3(C)[C@H](O)C[C@]12C` [Mogroside V] here?
A: 100-300 times as sweet as sugar

Q: Which “potency figures: times as sweet as sugar” value does the source give for `COC(=O)[C@H](Cc1ccccc1)NC(=O)[C@H](CC(=O)O)NCCC(C)(C)C` [Neotame] here?
A: 8,000 times as sweet as sugar

Q: For `CC1=CC(=O)NS(=O)(=O)O1` [Acesulfame-K], which “potency figures: times as sweet as sugar” value is on record?
A: 200 times as sweet as sugar

Q: For `O=C1NS(=O)(=O)c2ccccc21` [Saccharin], which “potency figures: times as sweet as sugar” value is on record?
A: 300 times as sweet as sugar

Q: With `C=C1C[C@@]23CC[C@H]4[C@@](C)(CCC[C@@]4(C)C(=O)O[C@@H]4O[C@H](CO)[C@@H](O)[C@H](O)[C@H]4O)[C@@H]2CC[C@]1(O[C@@H]1O[C@H](CO)[C@@H](O)[C@H](O[C@@H]2O[C@H](CO)[C@@H](O)[C@H](O)[C@H]2O)[C@H]1O[C@@H]1O[C@H](CO)[C@@H](O)[C@H](O)[C@H]1O)C3` [Rebaudioside A] as the compound, how does the “potency figures: times as sweet as sugar” value read?
A: 150-300 times as sweet as sugar

Same assay, conditions: versus sugar (i.e., sucrose)

Q: Which sweetness potency does the source give for `NC(CC(O)(Cc1c[nH]c2ccccc12)C(=O)O)C(=O)O` (stereo not drawn) [Monatin, 2-hydroxy-2-(indol-3-lymethyl)-4-aminoglutaric acid] here?
A: about 2000 times as sweet as sugar
